Counter-ions that a name gives are not always drawn. Like-named read-outs stand apart in the source and are kept apart here.
Columns and labels:
[1] = system: Human breast cancer-derived MCF7 cells; conditions: 72 h
Description: (§1) Human breast cancer-derived MCF7 cells and lung cancer-derived A549 cells were used as a test system.
(§2) MCF7 cells and A549 cells cultured in a DMEM containing 10% fetal bovine serum were respectively dispensed at a cell density of about 5×10^3 cells/well on a 96-well plate, followed by culturing for about 24 hours.
(§3) The resulting formazane crystal was dissolved in dimethyl sulfoxide (DMSO), and absorbance of the solution was measured at 560 nm.

[2] = system: lung cancer-derived A549 cells; conditions: human, 72 h
Description: as §1, §2, §3

[3] = system: Human breast cancer-derived MCF7 cells; assay: MTT assay, cancer cell viability and growth inhibition (MCF7); conditions: for IC50: read-out: GROWTH INHIBITORY CONCENTRATION (GIC50), MCF7, 72 hours, MTT; for CELLULAR VIABILITY (%): 72 hours, relative to untreated cells
Description: as §1, §2, §3

[4] = system: lung cancer-derived A549 cells; assay: MTT assay, cancer cell viability and growth inhibition (A549); conditions: for IC50: read-out: GROWTH INHIBITORY CONCENTRATION (GIC50), A549, 72 hours, MTT; for CELLULAR VIABILITY (%): 72 hours, relative to untreated cells
Description: as §1, §2, §3

IC50 [3] [µM]	IC50 [4] [µM]	Structure (SMILES)	CELLULAR VIABILITY (%) ([1]; 2 mM)	CELLULAR VIABILITY (%) ([1]; 10 mM)	CELLULAR VIABILITY (%) ([2]; 2 mM)	CELLULAR VIABILITY (%) ([2]; 10 mM)	CELLULAR VIABILITY (%) ([3]; MCF7, 2 mM)	CELLULAR VIABILITY (%) ([3]; MCF7, 10 mM)	CELLULAR VIABILITY (%) ([3]; MCF7, 10 mM, listed as metformin butyrate)	CELLULAR VIABILITY (%) ([4]; A549, 2 mM)	CELLULAR VIABILITY (%) ([4]; A549, 10 mM)	CELLULAR VIABILITY (%) ([4]; A549, 10 mM, listed as metformin butyrate)	CELLULAR VIABILITY (%) ([3]; MCF7, 2 mM, hydrochloride)	CELLULAR VIABILITY (%) ([3]; MCF7, 10 mM, hydrochloride)	CELLULAR VIABILITY (%) ([4]; A549, 2 mM, hydrochloride)	CELLULAR VIABILITY (%) ([4]; A549, 10 mM, hydrochloride)
2200	5200	CCCC(=O)O [Butyric acid, butyric acid]	53.9	22.3	78.6	28.3										
1600	2500	CN(C)C(=N)NC(=N)N [Metformin butyrate, N,N-dimethyl imidodicarbonimidic diamide butyrate]					45.5	19.9	less than 20%	57.7	11.7	less than 20%				
> 10000	3600	CN(C)C(=N)N=C(N)N [Metformin hydrochloride, metformin hydrochloride]											86.5	73.6	63.5	39.6
